From PubChem BioAssay AID328 (DTP/NCI, 2004)
Values joined by “and” are separate entries in the source; they are usually repeats but may differ in a detail not shown here. Equal values may be shown once. Toxic doses and inconclusive results are not listed. Rule for the calls: active = survival T/C of 150% or more; inactive = T/C below 125% in these data.

System: BDF1 mice, P388 leukemia ip, median survival T/C
Experiment: NCI In Vivo Anticancer Drug Screen. Data for tumor model P388 Leukemia (intraperitoneal) in B6D2F1 (BDF1) mice
Conditions: endpoint: median survival time, higher = longer survival
Outline: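 Each value expresses how treatment altered survival: treated-mouse outcome over vehicle-mouse outcome, both groups bearing the transplanted tumour.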

[1] = dose: 25.0 mg/kg/injection, schedule: Q01DX009 (ip), vehicle: saline with Tween-80
[2] = dose: 50.0 mg/kg/injection, schedule: Q01DX009 (ip), vehicle: saline with Tween-80
[3] = dose: 100.0 mg/kg/injection, schedule: Q01DX009 (ip), vehicle: saline with Tween-80
[4] = dose: 200.0 mg/kg/injection, schedule: Q01DX009 (ip), vehicle: saline with Tween-80
[5] = dose: 100.0 mg/kg/injection, schedule: Q01DX009 (ip), vehicle: Klucel (hydroxypropylcellulose) (HPC)
[6] = dose: 100.0 mg/kg/injection, schedule: Q04DX003 (ip), vehicle: Klucel (hydroxypropylcellulose) (HPC)
[7] = dose: 200.0 mg/kg/injection, schedule: Q04DX003 (ip), vehicle: Klucel (hydroxypropylcellulose) (HPC)
[8] = dose: 400.0 mg/kg/injection, schedule: Q04DX003 (ip), vehicle: Klucel (hydroxypropylcellulose) (HPC)

Measured: T/C

Cn1c(=O)c(-c2ccccc2)[n+]([O-])c2ccccc21
inactive: [1] 98 % of control | [2] 107 % of control | [3] 100 % of control | [4] 113 % of control

N#CC(O)c1ccccc1 (configuration not stated)
inactive: dose: 2.5 mg/kg/injection, schedule: Q01DX010 (ip), vehicle: acetone 107 % of control | dose: 5.0 mg/kg/injection, schedule: Q01DX010 (ip), vehicle: acetone 92 % of control | dose: 10.0 mg/kg/injection, schedule: Q01DX010 (ip), vehicle: acetone 92 % of control

NC(=O)c1nc2c([nH]c1=O)CCCC2
inactive: dose: 50.0 mg/kg/injection, schedule: Q01DX009 (ip), vehicle: saline 101 % of control | dose: 100.0 mg/kg/injection, schedule: Q01DX009 (ip), vehicle: saline 100 % of control | dose: 100.0 mg/kg/injection, schedule: Q04DX003 (ip), vehicle: saline 109 % of control | dose: 200.0 mg/kg/injection, schedule: Q01DX009 (ip), vehicle: saline 110 % of control | dose: 200.0 mg/kg/injection, schedule: Q04DX003 (ip), vehicle: saline 104 % of control | dose: 400.0 mg/kg/injection, schedule: Q01DX009 (ip), vehicle: saline 93 % of control | dose: 400.0 mg/kg/injection, schedule: Q04DX003 (ip), vehicle: saline 95 % of control

COc1cc2oc(-c3ccc(O)cc3O)c(CC=C(C)C)c(=O)c2c(O)c1/C=C/C(C)C
inactive: dose: 4.1 mg/kg/injection, schedule: Q01DX009 (ip), vehicle: Klucel (hydroxypropylcellulose) (HPC) 115 % of control | dose: 6.25 mg/kg/injection, schedule: Q01DX009 (ip), vehicle: Klucel (hydroxypropylcellulose) (HPC) 106 % of control | dose: 9.3 mg/kg/injection, schedule: Q01DX009 (ip), vehicle: Klucel (hydroxypropylcellulose) (HPC) 110 % of control | dose: 12.5 mg/kg/injection, schedule: Q01DX009 (ip), vehicle: Klucel (hydroxypropylcellulose) (HPC) 116 % of control | dose: 25.0 mg/kg/injection, schedule: Q01DX009 (ip), vehicle: Klucel (hydroxypropylcellulose) (HPC) 98 % of control | dose: 50.0 mg/kg/injection, schedule: Q01DX009 (ip), vehicle: Klucel (hydroxypropylcellulose) (HPC) 91 % of control | [5] 94 % of control

CC(C)(C)NC(C1=CC(C)(C)c2ccccc2C1=O)c1ccccc1 (configuration not stated)
inactive: [5] 105 % of control | [6] 100 % of control | dose: 200.0 mg/kg/injection, schedule: Q01DX009 (ip), vehicle: Klucel (hydroxypropylcellulose) (HPC) 110 % of control | [7] 95 % of control | [8] 90 % of control

CC(C)n1c2c([n+](C)c1/C=C/c1ccccc1)C(=O)c1ccccc1C2=O
inactive: dose: 0.5 mg/kg/injection, schedule: Q01DX010 (ip), vehicle: saline 109 % of control | dose: 1.0 mg/kg/injection, schedule: Q01DX009 (ip), vehicle: Klucel (hydroxypropylcellulose) (HPC) 105 % of control | dose: 2.0 mg/kg/injection, schedule: Q01DX010 (ip), vehicle: saline 122 % of control

CC(C)(C)[Si](C)(C)OC(=O)Nc1ccc(N(CCCl)CCCl)cc1
inactive: dose: 0.05 mg/kg/injection, schedule: Q01DX009 (ip), vehicle: saline with Tween-80 104 % of control | dose: 0.07 mg/kg/injection, schedule: Q01DX009 (ip), vehicle: saline with Tween-80 114 % of control | dose: 0.11 mg/kg/injection, schedule: Q01DX009 (ip), vehicle: saline with Tween-80 117 % of control | dose: 0.16 mg/kg/injection, schedule: Q01DX009 (ip), vehicle: saline with Tween-80 108 % of control | dose: 0.32 mg/kg/injection, schedule: Q01DX009 (ip), vehicle: saline with Tween-80 107 % of control

CCCCCCC(NC(C)=O)C(C)=O (configuration not stated)
inactive: [2] 104 % of control | [3] 101 % of control | [4] 101 % of control

CC(C)(Br)C(=O)c1ccc(-c2ccccc2)cc1
inactive: dose: 12.5 mg/kg/injection, schedule: Q01DX009 (ip), vehicle: water 109 % of control | dose: 25.0 mg/kg/injection, schedule: Q01DX009 (ip), vehicle: water 96 % of control | dose: 25.0 mg/kg/injection, schedule: Q04DX003 (ip), vehicle: water 107 % of control | dose: 50.0 mg/kg/injection, schedule: Q01DX009 (ip), vehicle: water 117 % of control | dose: 50.0 mg/kg/injection, schedule: Q04DX003 (ip), vehicle: water 107 % of control | dose: 100.0 mg/kg/injection, schedule: Q01DX009 (ip), vehicle: water 102 % of control | [6] 90 % of control | dose: 100.0 mg/kg/injection, schedule: Q04DX003 (ip), vehicle: water 107 % of control | dose: 200.0 mg/kg/injection, schedule: Q01DX009 (ip), vehicle: water 109 % of control | [7] 100 % of control | dose: 200.0 mg/kg/injection, schedule: Q04DX003 (ip), vehicle: water 107 % of control | dose: 400.0 mg/kg/injection, schedule: Q01DX009 (ip), vehicle: water 117 % of control | [8] 100 % of control | dose: 400.0 mg/kg/injection, schedule: Q04DX003 (ip), vehicle: water 110 % of control

COc1ccc2c(c1OC(C)=O)-c1cc(OC(C)=O)cc3c1C(C2)N(C(=O)CBr)CC3 (configuration not stated)
inactive: dose: 6.25 mg/kg/injection, schedule: Q01DX009 (ip), vehicle: saline with Tween-80 105 % of control | dose: 12.5 mg/kg/injection, schedule: Q01DX009 (ip), vehicle: saline with Tween-80 106 % of control | [1] 116 % of control | [2] 88 % of control and 114 % of control

CCOCN(COCC)c1cccc(Cl)c1
inactive: [2] 100 % of control and 115 % of control | [3] 118 % of control | [4] 118 % of control

CC(/C=C/c1ccccc1)=N\O
inactive: dose: 100.0 mg/kg/injection, schedule: Q04DX003 (ip), vehicle: saline sonified 90 % of control | dose: 200.0 mg/kg/injection, schedule: Q04DX003 (ip), vehicle: saline sonified 90 % of control | dose: 400.0 mg/kg/injection, schedule: Q04DX003 (ip), vehicle: saline sonified 90 % of control

COc1cc(NC(=O)CC(C)=O)c(OC)cc1Cl
inactive: [3] 95 % of control | [4] 100 % of control | dose: 400.0 mg/kg/injection, schedule: Q01DX009 (ip), vehicle: saline with Tween-80 104 % of control

NC(=O)n1cccn1
inactive: dose: 30.0 mg/kg/injection, schedule: Q01DX010 (ip), vehicle: saline 100 % of control | dose: 50.0 mg/kg/injection, schedule: Q01DX010 (ip), vehicle: other 104 % of control | dose: 60.0 mg/kg/injection, schedule: Q01DX010 (ip), vehicle: saline 100 % of control | dose: 100.0 mg/kg/injection, schedule: Q01DX010 (ip), vehicle: other 100 % of control | dose: 120.0 mg/kg/injection, schedule: Q01DX010 (ip), vehicle: saline 109 % of control | dose: 240.0 mg/kg/injection, schedule: Q01DX010 (ip), vehicle: saline 122 % of control

COc1ccc2c(Cl)cc(NC(=O)Nc3c(C)cccc3C)nc2c1
inactive: [3] 88 % of control

C=C1C(=O)OC2CC(C)C3C=CC(=O)C3(C)C(O)C12 (configuration not stated)
inactive: dose: 5.0 mg/kg/injection, schedule: Q01DX009 (ip), vehicle: saline with Tween-80 113 % of control | dose: 10.0 mg/kg/injection, schedule: Q01DX009 (ip), vehicle: saline with Tween-80 112 % of control | dose: 20.0 mg/kg/injection, schedule: Q01DX009 (ip), vehicle: saline with Tween-80 115 % of control

COc1ccc2c(c1)CCC1CC(=O)C=C21 (configuration not stated)
inactive: dose: 100.0 mg/kg/injection, schedule: Q01DX001 (ip), vehicle: saline 105 % of control | dose: 200.0 mg/kg/injection, schedule: Q01DX001 (ip), vehicle: saline 90 % of control | dose: 400.0 mg/kg/injection, schedule: Q01DX001 (ip), vehicle: saline 100 % of control
